Square brackets hold non-standard residues; d marks the D form. Ends that are not written are not given here. * marks the point of attachment. Sox = hydroxyquinoline on cysteine, CN(C)S(=O)(=O)c1ccc(O)c2nc(C*)ccc12; pT = C[C@@H](OP(=O)(O)O)[C@H](N)C(=O)O
Assay: Eu(III) titration, time-resolved luminescence, determination of Eu(III) dissociation constants
Type: binding
Details: 5 micromolar peptide, 30° C., 50 mM HEPES pH 7.5, 100 mM NaCl; averages of three separate experiments
Protocol: The luminescence experiments were conducted as follows. Time-resolved emission measurements were made with a CLARIOstar® spectrofluorimeter. The spectra were recorded between 410 and 700 nm, and all measurements were made using the following settings: excitation wavelength 360 nm; delay time 0.4 ms; stepwidth 1.0 nm; emission bandwidth 8 nm; gain: 3000; focal height […]; 20 flashes per well. All of the spectra were corrected for background luminescence by subtracting a blank scan of the solvent solution.
Determination of Eu(III) dissociation constants (KD). Eu(III) titrations were performed at 30° C. in a buffer containing 50 mM HEPES buffer, pH 7.5, 100 mM NaCl, and 5 micromolar of the of the phosphopeptide Sox-P (5 micromolar) or the corresponding unphosphorylated biosensor Sox-OH (5 micromolar) in a total volume of 200 microliters. Aliquots of EuCl3 stock solutions were added (for the final EuCl3 concentration in the well to be in the range of approximately 2.5-6000 micromolar) and the data was recorded in the fluorometer. Data were fit with the program GraFit 7. The reported values are averages of three separate experiments.

Substance	Kd
LVEPLT*PC(Sox)GEA (LVEPL[pT]PC(Sox)GEA) [Sox-P, phosphopeptide with Sox hydroxyquinoline attached to the S of the cysteine]	18.4 µM
LVEPLTPC(Sox)GEA [Sox-OH, unphosphorylated biosensor peptide with Sox hydroxyquinoline attached to the S of the cysteine]	1570 µM
